Measurements: patent publication US9902696B2, “1,4-substituted piperidine derivatives” (Cephalon, Inc., priority 2015, dated 2018)
Where a name gives a salt, the structure may show the parent alone.

biological target: T1, recombinant human baculovirus-expressed GST-tagged FASN (Homo sapiens, UniProt P49327); assay: FASN enzyme activity assay, fluorescence-based detection of CoA with CPM; assay type: biochemical; settings: 5 nM FASN, 150 μM NADPH, 10 μM acetyl-CoA, 25 μM malonyl-CoA, 90 minutes incubation; read-out: IC50 data for Compounds of Formulae I-V/V(a): Activity
T1 construct: GST
How it was run: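 CoA product reacted with thiol-reactive CPM (diluted to 50 μM in 70% ethanol), read at 390/530 nm after 30 min. Preceding reaction: 90 min, 5 nM recombinant GST-FASN, 150 μM NADPH, 10 μM acetyl-CoA, 25 μM malonyl-CoA, pH 7.5 HEPES, 0.5% DMSO. IC50s fitted by nonlinear sigmoidal regression.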

T1 sequence (P49327 whole entry): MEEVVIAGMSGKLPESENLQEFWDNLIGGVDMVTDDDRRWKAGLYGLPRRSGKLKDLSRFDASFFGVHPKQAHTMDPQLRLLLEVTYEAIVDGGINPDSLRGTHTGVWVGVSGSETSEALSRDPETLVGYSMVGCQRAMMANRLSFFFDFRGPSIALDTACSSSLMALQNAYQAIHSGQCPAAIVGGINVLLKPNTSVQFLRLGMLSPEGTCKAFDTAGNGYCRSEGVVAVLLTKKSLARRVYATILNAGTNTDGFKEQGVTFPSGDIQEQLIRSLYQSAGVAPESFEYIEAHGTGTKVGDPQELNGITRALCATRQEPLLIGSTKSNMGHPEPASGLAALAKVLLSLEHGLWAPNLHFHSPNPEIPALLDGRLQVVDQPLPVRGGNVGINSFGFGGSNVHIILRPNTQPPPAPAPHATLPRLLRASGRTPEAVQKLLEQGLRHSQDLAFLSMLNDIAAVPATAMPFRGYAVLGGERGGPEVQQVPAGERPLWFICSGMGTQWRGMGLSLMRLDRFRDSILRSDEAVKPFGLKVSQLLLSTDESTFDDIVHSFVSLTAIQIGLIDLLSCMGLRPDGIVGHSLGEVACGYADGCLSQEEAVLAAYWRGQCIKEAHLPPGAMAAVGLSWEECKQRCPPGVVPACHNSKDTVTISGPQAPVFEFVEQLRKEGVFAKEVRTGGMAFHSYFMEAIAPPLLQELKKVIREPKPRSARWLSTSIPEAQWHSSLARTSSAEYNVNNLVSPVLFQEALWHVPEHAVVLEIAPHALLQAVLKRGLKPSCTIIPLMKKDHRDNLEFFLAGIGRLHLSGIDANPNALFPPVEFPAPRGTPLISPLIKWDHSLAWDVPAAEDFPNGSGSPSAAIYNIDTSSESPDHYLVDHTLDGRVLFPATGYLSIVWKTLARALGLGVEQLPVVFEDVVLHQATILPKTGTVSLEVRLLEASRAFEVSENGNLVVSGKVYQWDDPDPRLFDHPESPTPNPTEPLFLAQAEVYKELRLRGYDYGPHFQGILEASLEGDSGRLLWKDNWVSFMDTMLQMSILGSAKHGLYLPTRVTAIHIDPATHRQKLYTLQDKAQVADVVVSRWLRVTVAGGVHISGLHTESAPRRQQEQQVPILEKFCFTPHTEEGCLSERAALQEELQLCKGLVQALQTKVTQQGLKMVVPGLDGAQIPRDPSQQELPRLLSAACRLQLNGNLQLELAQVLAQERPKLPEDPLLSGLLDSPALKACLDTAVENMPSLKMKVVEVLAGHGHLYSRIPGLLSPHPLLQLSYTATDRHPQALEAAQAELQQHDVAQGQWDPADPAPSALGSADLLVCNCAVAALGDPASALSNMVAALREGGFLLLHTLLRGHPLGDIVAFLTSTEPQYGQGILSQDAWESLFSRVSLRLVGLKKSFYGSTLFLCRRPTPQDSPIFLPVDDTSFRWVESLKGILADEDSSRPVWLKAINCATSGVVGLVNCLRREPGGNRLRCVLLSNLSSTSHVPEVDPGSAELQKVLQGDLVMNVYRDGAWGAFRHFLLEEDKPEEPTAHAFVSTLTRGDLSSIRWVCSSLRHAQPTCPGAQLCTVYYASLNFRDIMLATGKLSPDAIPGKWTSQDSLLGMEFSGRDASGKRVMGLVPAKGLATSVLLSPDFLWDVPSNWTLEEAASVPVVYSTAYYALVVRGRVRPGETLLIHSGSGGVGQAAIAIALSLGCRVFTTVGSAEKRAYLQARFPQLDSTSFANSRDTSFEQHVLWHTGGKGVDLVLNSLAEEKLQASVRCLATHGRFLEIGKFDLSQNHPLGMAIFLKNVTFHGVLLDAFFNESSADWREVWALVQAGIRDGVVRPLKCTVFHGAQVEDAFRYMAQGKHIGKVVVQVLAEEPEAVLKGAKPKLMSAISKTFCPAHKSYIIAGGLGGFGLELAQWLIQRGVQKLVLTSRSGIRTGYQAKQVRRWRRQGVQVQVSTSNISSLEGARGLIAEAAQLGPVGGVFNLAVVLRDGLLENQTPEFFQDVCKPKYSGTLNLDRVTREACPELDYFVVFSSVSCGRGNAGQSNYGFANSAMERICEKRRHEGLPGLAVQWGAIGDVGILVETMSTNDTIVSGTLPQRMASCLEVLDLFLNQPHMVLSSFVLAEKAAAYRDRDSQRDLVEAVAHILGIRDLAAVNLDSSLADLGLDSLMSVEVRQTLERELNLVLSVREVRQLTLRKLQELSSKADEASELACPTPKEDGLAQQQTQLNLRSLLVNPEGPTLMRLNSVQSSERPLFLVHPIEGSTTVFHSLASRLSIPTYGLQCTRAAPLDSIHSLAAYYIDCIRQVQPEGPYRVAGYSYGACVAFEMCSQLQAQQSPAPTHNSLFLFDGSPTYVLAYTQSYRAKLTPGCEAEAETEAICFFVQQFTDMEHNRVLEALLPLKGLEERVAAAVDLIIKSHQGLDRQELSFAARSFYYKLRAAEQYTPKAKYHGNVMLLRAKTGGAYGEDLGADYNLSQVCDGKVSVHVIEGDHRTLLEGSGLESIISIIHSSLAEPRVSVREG

Row | SMILES | IC50 [µM]
1 | Cc1c(-c2ccc(OC3CCN(C(=O)NC(C)C)CC3)cc2)ccc2cccnc12 [Example 92, N-Isopropyl-4-[4-(8-methyl-7-quinolyl)phenoxy]piperidine-1-carboxamide] | 1 to 10
2 | O=C(C1CCOC1)N1CCC(Oc2ccc(-c3cnc4ccccc4c3)cc2)CC1 (stereo not drawn) [Example 107, [4-(4-Quinolin-3-yl-phenoxyl)-piperidin-1-yl]-(tetrahydrofuran-3-yl)-methanone, 2HCl] | 1 to 10
3 | CO[C@H](C)C(=O)N1CCC(Oc2ccc(-c3cnc4ccccc4c3)cc2)CC1 [Example 108, (R)-2-Methoxy-1-[4-(4-quinolin-3-yl-phenoxy)-piperidin-1-yl]-propan-1-one, 2HCl] | 0.1 to 0.999
4 | CO[C@@H](C)C(=O)N1CCC(Oc2ccc(-c3cnc4ccccc4c3)cc2)CC1 [Example 109, (S)-2-Methoxy-1-[4-(4-quinolin-3-yl-phenoxy)-piperidin-1-yl]-propan-1-one, 2HCl] | 1 to 10
5 | O=C(CO)N1CCC(Oc2ccc(-c3cnc4ccccc4c3)cc2)CC1 [Example 110, 2-Hydroxy-1-[4-(4-quinolin-3-yl-phenoxy)-piperidin-1-yl]-ethanone, 2HCl] | 1 to 10
6 | O=C(c1ccco1)N1CCC(Oc2ccc(-c3cnc4ccccc4c3)cc2)CC1 [Example 111, HCl] | 1 to 10
7 | CC(=O)N1CCC(Oc2ccc(-c3cnc4ccccc4c3)cc2)CC1 [Example 112, 1-[4-(4-Quinolin-3-yl-phenoxy)-piperidin-1-yl]-ethanone, HCl] | 0.1 to 0.999
8 | CC(C)C(=O)N1CCC(Oc2ccc(-c3cnc4ccccc4c3)cc2)CC1 [Example 113, 2-Methyl-1-[4-(4-quinolin-3-yl-phenoxy)-piperidin-1-yl]-propan-1-one, HCl] | 0.1 to 0.999
9 | CC(C)(C)C(=O)N1CCC(Oc2ccc(-c3cnc4ccccc4c3)cc2)CC1 [Example 114, 2,2-Dimethyl-1-[4-(4-quinolin-3-yl-phenoxy)-piperidin-1-yl]-propan-1-one, HCl] | 0.1 to 0.999
10 | CC1(C(=O)N2CCC(Oc3ccc(-c4cnc5ccccc5c4)cc3)CC2)CCCO1 (stereo not drawn) [Example 115, (2-Methyltetrahydrofuran-2-yl)-[4-(4-quinolin-3-yl-phenoxy)-piperidin-1-yl]-methanone, HCl] | 0.1 to 0.999
11 | CS(=O)(=O)CC(=O)N1CCC(Oc2ccc(-c3cnc4ccccc4c3)cc2)CC1 [Example 117, 2-Methanesulfonyl-1-[4-(4-quinolin-3-yl-phenoxy)-piperidin-1-yl]-ethanone, HCl] | 1 to 10
12 | O=C(C1CCCS1(=O)=O)N1CCC(Oc2ccc(-c3cnc4ccccc4c3)cc2)CC1 (stereo not drawn) [Example 118, (1,1-Dioxidotetrahydrothiophen-2-yl)(4-(4-(quinolin-3-yl)phenoxy)piperidin-1-yl)methanone, HCl] | 1 to 10
13 | O=C(C1CC(F)(F)C1)N1CCC(Oc2ccc(-c3cnc4ccccc4c3)cc2)CC1 [Example 119, (3,3-Difluorocyclobutyl)-[4-(4-quinolin-3-yl-phenoxy)-piperidin-1-yl]-methanone] | 1 to 10
14 | Cc1ccoc1C(=O)N1CCC(Oc2ccc(-c3cnc4ccccc4c3)cc2)CC1 [Example 121, (3-Methylfuran-2-yl)-[4-(4-quinolin-3-yl-phenoxy)-piperidin-1-yl]-methanone, HCl] | 1 to 10
15 | Cc1cc(C)c(C(=O)N2CCC(Oc3ccc(-c4cnc5ccccc5c4)cc3)CC2)o1 [Example 122, (3,5-Dimethylfuran-2-yl)-[4-(4-quinolin-3-yl-phenoxy)-piperidin-1-yl]-methanone, HCl] | 1 to 10
16 | O=C(c1ncco1)N1CCC(Oc2ccc(-c3cnc4ccccc4c3)cc2)CC1 [Example 123, Oxazol-2-yl-[4-(4-quinolin-3-yl-phenoxy)-piperidin-1-yl]-methanone; HCl] | 1 to 10
17 | O=C(c1ccon1)N1CCC(Oc2ccc(-c3cnc4ccccc4c3)cc2)CC1 [Example 124, Isoxazol-3-yl-[4-(4-quinolin-3-yl-phenoxy)-piperidin-1-yl]-methanone, HCl] | 1 to 10
18 | O=C(c1ccsn1)N1CCC(Oc2ccc(-c3cnc4ccccc4c3)cc2)CC1 [Example 125, Isothiazol-3-yl-[4-(4-quinolin-3-yl-phenoxy)-piperidin-1-yl]-methanone, HCl] | 1 to 10
19 | O=C(c1ccccc1)N1CCC(Oc2ccc(-c3cnc4ccccc4c3)cc2)CC1 [Example 127, Phenyl-[4-(4-quinolin-3-yl-phenoxy)-piperidin-1-yl]-methanone, HCl] | 1 to 10
20 | Cc1ccc(C)c(C(=O)N2CCC(Oc3ccc(-c4cnc5ccccc5c4)cc3)CC2)c1 [Example 128, (2,5-Dimethylphenyl)-[4-(4-quinolin-3-yl-phenoxy)-piperidin-1-yl]-methanone, HCl] | 1 to 10
21 | O=C(c1cccc(-c2ncc[nH]2)c1)N1CCC(Oc2ccc(-c3cnc4ccccc4c3)cc2)CC1 [Example 129, [3-(1H-Imidazol-2-yl)-phenyl]-[4-(4-quinolin-3-yl-phenoxy)-piperidin-1-yl]-methanone, HCl] | 1 to 10

Results, then the molecule that gave them:

Row | IC50 [µM] | SMILES
22 | 0.001 to 0.099 | CCNC(=O)N1CCC(Oc2ccc(-c3ccc4cccnc4c3C)cc2)CC1 [Example 88, N-ethyl-4-[4-(8-methyl-7-quinolyl)phenoxy]piperidine-1-carboxamide]
23 | 0.001 to 0.099 | Cc1c(-c2ccc(OC3CCN(C(=O)N(C)C)CC3)cc2)ccc2cccnc12 [Example 89, N,N-dimethyl-4-[4-(8-methyl-7-quinolyl)phenoxy]piperidine-1-carboxamide]
24 | 0.1 to 0.999 | CCOC(=O)N1CCC(Oc2ccc(-c3ccc4cccnc4c3C)cc2)CC1 [Example 90, Ethyl 4-[4-(8-methyl-7-quinolyl)phenoxy]piperidine-1-carboxylate]
25 | 0.001 to 0.099 | CONC(=O)N1CCC(Oc2ccc(-c3ccc4cccnc4c3C)cc2)CC1 [Example 91, N-methoxy-4-[4-(8-methyl-7-quinolyl)phenoxy]piperidine-1-carboxamide]
26 | 0.001 to 0.099 | CCONC(=O)N1CCC(Oc2ccc(-c3ccc4cccnc4c3C)cc2)CC1 [Example 93, N-ethoxy-4-[4-(8-methyl-7-quinolyl)phenoxy]piperidine-1-carboxamide]
27 | 0.001 to 0.099 | Cc1c(-c2ccc(OC3CCN(C(=O)N4CCCC4)CC3)cc2)ccc2cccnc12 [Example 94, [4-[4-(8-methyl-7-quinolyl)phenoxy]-1-piperidyl]-pyrrolidin-1-yl-methanone]
28 | 0.001 to 0.099 | CNC(=O)N1CCC(Oc2ccc(-c3ccc4cccnc4c3C)cc2)CC1 [Example 95, N-methyl-4-[4-(8-methyl-7-quinolyl)phenoxy]piperidine-1-carboxamide]
29 | 0.001 to 0.099 | CCCNC(=O)N1CCC(Oc2ccc(-c3ccc4cccnc4c3C)cc2)CC1 [Example 96, 4-[4-(8-methyl-7-quinolyl)phenoxy]-N-propyl-piperidine-1-carboxamide]
30 | 0.1 to 0.999 | Cc1c(-c2ccc(OC3CCN(C(N)=O)CC3)cc2)ccc2cccnc12 [Example 97, 4-[4-(8-methyl-7-quinolyl)phenoxy]piperidine-1-carboxamide]
31 | 0.001 to 0.099 | Cc1c(-c2ccc(OC3CCN(C(=O)N4CCCCC4)CC3)cc2)ccc2cccnc12 [Example 98, [4-[4-(8-methyl-7-quinolyl)phenoxy]-1-piperidyl]-(1-piperidyl)methanone]
32 | 0.1 to 0.999 | Cc1c(-c2ccc(OC3CCN(C(=O)N4CCOCC4)CC3)cc2)ccc2cccnc12 [Example 99, [4-[4-(8-methyl-7-quinolyl)phenoxy]-1-piperidyl]-morpholino-methanone]
33 | 0.001 to 0.099 | O=C(C1CC1)N1CCC(Oc2ccc(-c3cnc4ccccc4c3)cc2)CC1 [Example 100, Cyclopropyl-[4-(4-quinolin-3-yl-phenoxy)-piperidin-1-yl]-methanone,HCl]
34 | 0.001 to 0.099 | O=C(C1CCC1)N1CCC(Oc2ccc(-c3cnc4ccccc4c3)cc2)CC1 [Example 101, Cyclobutyl-[4-(4-quinolin-3-yl-phenoxy)-piperidin-1-yl]-methanone,HCl]
35 | 0.1 to 0.999 | O=C(C1CCCC1)N1CCC(Oc2ccc(-c3cnc4ccccc4c3)cc2)CC1 [Example 102, Cyclopentyl-[4-(4-quinolin-3-yl-phenoxy)-piperidin-1-yl]-methanone, 2HCl]
36 | 0.001 to 0.099 | O=C([C@H]1CCCO1)N1CCC(Oc2ccc(-c3cnc4ccccc4c3)cc2)CC1 [Example 103, [4-(4-Quinolin-3-yl-phenoxy)-piperidin-1-yl]-(R)-tetrahydrofuran-2-yl-methanone, HCl]
37 | 0.001 to 0.099 | O=C([C@@H]1CCCO1)N1CCC(Oc2ccc(-c3cnc4ccccc4c3)cc2)CC1 [Example 104, [4-(4-Quinolin-3-yl-phenoxy)-piperidin-1-yl]-(S)-tetrahydrofuran-2-yl-methanone, HCl]
38 | 0.001 to 0.099 | COCC(=O)N1CCC(Oc2ccc(-c3cnc4ccccc4c3)cc2)CC1 [Example 105]
39 | 0.1 to 0.999 | O=C(C1CCCCO1)N1CCC(Oc2ccc(-c3cnc4ccccc4c3)cc2)CC1 (stereo not drawn) [Example 106, [4-(4-Quinolin-3-yl-phenoxy)-piperidin-1-yl]-(tetrahydropyran-2-yl)-methanone, 2HCl]
40 | 0.001 to 0.099 | CC1(C(=O)N2CCC(Oc3ccc(-c4cnc5ccccc5c4)cc3)CC2)OCCO1 [Example 116, (2-Methyl-1,3-dioxolan-2-yl)-[4-(4-quinolin-3-yl-phenoxy)-piperidin-1-yl]-methanone, HCl]
41 | 0.001 to 0.099 | O=C1CC[C@H](C(=O)N2CCC(Oc3ccc(-c4cnc5ccccc5c4)cc3)CC2)O1 [Example 120, (R)-5-[4-(4-Quinolin-3-yl-phenoxy)-piperidine-1-carbonyl]-dihydrofuran-2-one, HCl]
42 | 0.001 to 0.099 | O=C(C1CCCO1)N1CCC(Oc2ccc(-c3cnc4ccccc4c3)cc2)CC1 (stereo not drawn) [Example 126, [4-(4-Quinolin-3-yl-phenoxy)-piperidin-1-yl]-(tetrahydrofuran-2-yl)-methanone, HCl]
